Source: PMC7794297

Tests used:
glucose oxidase (GOx) [1] = target: T1, glucose oxidase (GOx) (Aspergillus niger, UniProt P13006); assay: Glucose oxidase-directed DCL of building blocks 1-4; design: purchased Sigma Aldrich; unit not given here; details: blank vs GOx template DCL; GOx 57 μM, Secox 5% mol, 24 h
Experimental: The equilibration of the DCL was completed after 24 h (Fig. 9) and the oligomers were identified by HPLC-MS (Supplementary Figs. 4–20). The precise composition of the DCL (with and without GOx), was assessed by measuring the relative peak area (RPA). The normalized change of RPA was used to quantify the protein influence in the final DCL showing the amplification of the dimer of compound 4, that is (4)2 (Fig. 9b). Control experiments were set up to verify that the amplification of the dimer was not due to unspecific binding. Firstly the GOx was replaced by the bovine serum albumin (BSA). A stability study of BSA under the DCL conditions was performed using a fluorescence technique confirming the BSA stability in the DCL experiment (Supplementary Fig. 48)[50].
The DCL was stabilized for 24 h at 6 °C. Then, GOx was removed by ultracentrifugation through an Amicon ultra-filter (100 KDa). HPLC analysis was performed.

[2] = target: bovine serum albumin (BSA) (Bos taurus, UniProt P02769); assay: BSA-directed DCL of building blocks 1-4; design: purchased Roche; key to NC of RPA: normalized change of relative peak area (RPA) vs blank DCL
glucose oxidase (GOx) [3] = target: T1, glucose oxidase (GOx); assay: GOx activity assay, glucose oxidase-horseradish peroxidase coupled system with o-dianisidine; format: biochemical; design: purchased Sigma Aldrich; details: for 1/Vo: Lineweaver-Burk;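 as to GOx activity: GOx activity followed by o-dianisidine absorbance at 500 nm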
[4] = Spermidine-templated DCL of building blocks 1-4;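 also: Spermidine-templated dynamic combinatorial library, normalized change of RPA compared between Secox-free and Secox-containing libraries, DCC runs done in triplicate, values given as mean ± SD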
[5] = Solubility under DCL conditions; format: physicochemical; details: aqueous buffer; basic pH and 2.5% (v/v) DMSO
From the text: reaction of compound 3 to (3)2 in the presence of selenocystine and DMSO. The accelerating role of DMSO wa s disca rded by running control experim ents containing up to 20% (v/v) DMSO, which is much larger than the amount of this co-solvent used in our standard conditions (2.5% (v/v) DMSO).
1) All the amino acids shown in Figure 3 have D-stereochemistry. I guess this is an error, please amend that. The same issue states for the structures in Figure 1.
Thank you. It has been corrected.
2) For every mention to % of a reagent, especially in the methods part, it should be clearly stated if this is volume, weight of molar percent, and with respect to what.
Thank you. It has been included.
3) Some of the disulfides formed in the libraries (i.e. (4)2) are expected to be poorly soluble in buffered water. […] When quantifying species in a mixture, solubility problems must be carefully […]
1.The main problem of the MS is that the authors only describe the rate enhancement by comparing if the reactions have reached equilibrium after 24 h or 96 h, as characterised by HPLC. It is shown for different ratios of the catalyst, but it doesn’t provide any quantitative measure of the rate acceleration. […] The authors should provide quantitative characterisation of the rate constants, starting with a simple homodimerisation of thiols, as it is done in ref. 15. […]

[6] = NADPH-templated DCL of building blocks 1-4;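 also: values are means ± SD of DCC experiments run in triplicate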

T1 sequence (P13006 17-605): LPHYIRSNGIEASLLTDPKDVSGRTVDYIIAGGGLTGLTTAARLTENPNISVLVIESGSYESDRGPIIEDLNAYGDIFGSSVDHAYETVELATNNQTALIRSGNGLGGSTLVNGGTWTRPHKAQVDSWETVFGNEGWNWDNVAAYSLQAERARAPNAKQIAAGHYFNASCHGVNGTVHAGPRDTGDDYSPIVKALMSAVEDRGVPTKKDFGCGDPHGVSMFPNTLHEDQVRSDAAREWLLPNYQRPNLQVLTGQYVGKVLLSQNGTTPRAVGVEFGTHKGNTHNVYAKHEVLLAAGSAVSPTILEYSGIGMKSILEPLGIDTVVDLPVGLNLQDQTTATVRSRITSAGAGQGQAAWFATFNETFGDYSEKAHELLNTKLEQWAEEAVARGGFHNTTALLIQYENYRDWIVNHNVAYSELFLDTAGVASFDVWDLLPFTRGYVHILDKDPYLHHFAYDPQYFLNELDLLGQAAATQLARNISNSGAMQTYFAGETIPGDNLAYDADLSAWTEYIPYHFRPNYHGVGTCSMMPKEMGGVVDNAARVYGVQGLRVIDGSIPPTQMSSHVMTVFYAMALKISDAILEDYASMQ
bovine serum albumin (BSA), sequence (P02769 25-607): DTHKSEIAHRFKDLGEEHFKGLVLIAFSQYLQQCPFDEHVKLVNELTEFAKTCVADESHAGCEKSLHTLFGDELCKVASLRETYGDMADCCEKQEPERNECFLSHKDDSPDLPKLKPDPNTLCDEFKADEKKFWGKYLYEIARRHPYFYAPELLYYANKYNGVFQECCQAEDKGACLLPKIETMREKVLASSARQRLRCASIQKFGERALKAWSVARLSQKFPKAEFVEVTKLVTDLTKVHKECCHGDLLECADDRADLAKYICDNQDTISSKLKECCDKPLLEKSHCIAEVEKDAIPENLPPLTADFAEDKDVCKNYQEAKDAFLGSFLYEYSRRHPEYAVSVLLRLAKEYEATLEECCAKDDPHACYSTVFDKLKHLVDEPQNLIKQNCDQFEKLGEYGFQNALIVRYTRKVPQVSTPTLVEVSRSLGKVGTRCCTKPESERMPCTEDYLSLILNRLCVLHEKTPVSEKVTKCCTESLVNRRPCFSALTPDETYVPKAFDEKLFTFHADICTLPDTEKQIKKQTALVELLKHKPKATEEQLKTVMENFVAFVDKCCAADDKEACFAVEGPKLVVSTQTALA

## c1ccc(SSc2ccccc2)cc1 [(4)2]
Glucose oxidase (GOx) [1]
  NC of RPA: 39,73
[2]; GOx replaced by BSA
  amplification in the BSA-templated DCL: did not amplify
[2]; blank vs BSA-DCL, BSA 57 µM, Secox 5% mol, 24 h
  NC of RPA: 0,02
Glucose oxidase (GOx) [3]; IC50 data, inhibitor 1.4 nM, glucose 10 mM
  GOx Activity: 0.07285 min⁻¹
Glucose oxidase (GOx) [3]; IC50 data, inhibitor 3.5 nM, glucose 10 mM
  GOx Activity: 0.0762 min⁻¹
Glucose oxidase (GOx) [3]; IC50 data, inhibitor 7.0 nM, glucose 10 mM
  GOx Activity: 0.0665 min⁻¹
Glucose oxidase (GOx) [3]; IC50 data, inhibitor 14.0 nM, glucose 10 mM
  GOx Activity: 0.0785 min⁻¹
Glucose oxidase (GOx) [3]; IC50 data, inhibitor 70.0 nM, glucose 10 mM
  GOx Activity: 0.0871 min⁻¹
Glucose oxidase (GOx) [3]; IC50 data, inhibitor 140.0 nM, glucose 10 mM
  GOx Activity: 0.08235 min⁻¹
Glucose oxidase (GOx) [3]; IC50 data, inhibitor 700.0 nM, glucose 10 mM
  GOx Activity: 0.0656 min⁻¹
Glucose oxidase (GOx) [3]; IC50 data, inhibitor 1400.0 nM, glucose 10 mM
  GOx Activity: 0.0557 min⁻¹
Glucose oxidase (GOx) [3]; IC50 data, inhibitor 7000.0 nM, glucose 10 mM
  GOx Activity: 0.0417 min⁻¹
Glucose oxidase (GOx) [3]; IC50 data, inhibitor 140000.0 nM, glucose 10 mM
  GOx Activity: 0.0376 min⁻¹
Glucose oxidase (GOx) [3]; Ki data, inhibitor 7,0·10^-7 M, [Glucose] 0.0002 M
  GOx Activity: 0.0019 min⁻¹
Glucose oxidase (GOx) [3]; Ki data, inhibitor 7,0·10^-7 M, [Glucose] 0.0007 M
  GOx Activity: 0.0067 min⁻¹
Glucose oxidase (GOx) [3]; Ki data, inhibitor 7,0·10^-7 M, [Glucose] 0.0014 M
  GOx Activity: 0.01145 min⁻¹
Glucose oxidase (GOx) [3]; Ki data, inhibitor 7,0·10^-7 M, [Glucose] 0.0028 M
  GOx Activity: 0.02218 min⁻¹
Glucose oxidase (GOx) [3]; Ki data, inhibitor 7,0·10^-7 M, [Glucose] 0.004 M
  GOx Activity: 0.02548 min⁻¹
Glucose oxidase (GOx) [3]; Ki data, inhibitor 7·10^-8 M, [Glucose] 0.0002 M
  GOx Activity: 0.0021 min⁻¹
Glucose oxidase (GOx) [3]; Ki data, inhibitor 7·10^-8 M, [Glucose] 0.0007 M
  GOx Activity: 0.01063 min⁻¹
Glucose oxidase (GOx) [3]; Ki data, inhibitor 7·10^-8 M, [Glucose] 0.0014 M
  GOx Activity: 0.01978 min⁻¹
Glucose oxidase (GOx) [3]; Ki data, inhibitor 7·10^-8 M, [Glucose] 0.0028 M
  GOx Activity: 0.03193 min⁻¹
Glucose oxidase (GOx) [3]; Ki data, inhibitor 7·10^-8 M, [Glucose] 0.004 M
  GOx Activity: 0.0385 min⁻¹
Glucose oxidase (GOx) [3]; Ki data, inhibitor 14·10^-7 M, [Glucose] 0.0002 M
  GOx Activity: 0.00175 min⁻¹
Glucose oxidase (GOx) [3]; Ki data, inhibitor 14·10^-7 M, [Glucose] 0.0007 M
  GOx Activity: 0.006225 min⁻¹
Glucose oxidase (GOx) [3]; Ki data, inhibitor 14·10^-7 M, [Glucose] 0.0014 M
  GOx Activity: 0.013 min⁻¹
Glucose oxidase (GOx) [3]; Ki data, inhibitor 14·10^-7 M, [Glucose] 0.0028 M
  GOx Activity: 0.01805 min⁻¹
Glucose oxidase (GOx) [3]; Ki data, inhibitor 14·10^-7 M, [Glucose] 0.004 M
  GOx Activity: 0.02392 min⁻¹
Glucose oxidase (GOx) [3]; Ki data, inhibitor 14·10^-8 M, [Glucose] 0.0002 M
  GOx Activity: 0.001875 min⁻¹
Glucose oxidase (GOx) [3]; Ki data, inhibitor 14·10^-8 M, [Glucose] 0.0007 M
  GOx Activity: 0.008475 min⁻¹
Glucose oxidase (GOx) [3]; Ki data, inhibitor 14·10^-8 M, [Glucose] 0.0014 M
  GOx Activity: 0.0135 min⁻¹
Glucose oxidase (GOx) [3]; Ki data, inhibitor 14·10^-8 M, [Glucose] 0.0028 M
  GOx Activity: 0.0304 min⁻¹
Glucose oxidase (GOx) [3]; Ki data, inhibitor 14·10^-8 M, [Glucose] 0.004 M
  GOx Activity: 0.0395 min⁻¹
Glucose oxidase (GOx) [3]; inhibitor 0,7 µM, 1/[glucose] 250 M-1
  1/Vo: 41.8673 min
Glucose oxidase (GOx) [3]; inhibitor 0,7 µM, 1/[glucose] 357 M-1
  1/Vo: 59.4498 min
Glucose oxidase (GOx) [3]; inhibitor 0,7 µM, 1/[glucose] 714 M-1
  1/Vo: 110.461 min
Glucose oxidase (GOx) [3]; inhibitor 0,7 µM, 1/[glucose] 1430 M-1
  1/Vo: 185.984 min
Glucose oxidase (GOx) [3]; inhibitor 0,7 µM, 1/[glucose] 5000 M-1
  1/Vo: 603.288 min
Glucose oxidase (GOx) [3]; inhibitor 1,4 µM, 1/[glucose] 250 M-1
  1/Vo: 56.7644 min
Glucose oxidase (GOx) [3]; inhibitor 1,4 µM, 1/[glucose] 357 M-1
  1/Vo: 75.4986 min
Glucose oxidase (GOx) [3]; inhibitor 1,4 µM, 1/[glucose] 714 M-1
  1/Vo: 81.9727 min
Glucose oxidase (GOx) [3]; inhibitor 1,4 µM, 1/[glucose] 1430 M-1
  1/Vo: 178.284 min
Glucose oxidase (GOx) [3]; inhibitor 1,4 µM, 1/[glucose] 5000 M-1
  1/Vo: 687.292 min
Glucose oxidase (GOx) [3]; Lineweaver–Burk plots
  Inhibitor Type: non-competitive
Glucose oxidase (GOx) [3]; [Glucose] 10 mM, 37 °C, sodium acetate buffer pH 5.1
  IC50: 1800 ± 100 nM
Glucose oxidase (GOx) [3]; non-competitive inhibition model, 37 °C, sodium acetate buffer pH 5.1
  Ki: 1700 ± 200 nM
[4]; 0% Secox
  Normalized Change of RPA (NC): -0,49
[4]; 5% Secox
  Normalized Change of RPA (NC): -0,50
[5]
  solubility: ≤ 2000 µM
[6]; 0% Secox
  Normalized Change of RPA (NC): -1,00
[6]; 5% Secox
  Normalized Change of RPA (NC): -1,00
